Where two headings read alike, the source gives them in different places.
Key:
[1] = tested on: Pseudomonas aeruginosa efflux+ (MB9798), IMP-1; assay type: cell-based; parameters: Concentration of metallo-β-lactamase inhibitor which restores susceptibility of efflux + (MB9798) strain to imipenem: unit not given here; settings: C, D serine β-lactamase inhibitor closely related to relebactam; for P. aeruginosa expressing IMP-1, efflux + (MB9798) MITC95: concentration restoring susceptibility to imipenem at 2 μg/mL in the presence of a class A; for Concentration of metallo-β-lactamase inhibitor which restores susceptibility of efflux + (MB9798) strain to imipenem: imipenem at 2 μg/mL, in the presence of a class A
How it was run: (§1)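 Steps: add fixed imipenem and/or ceftazidime (usually CLSI breakpoint) and fixed AmpC-directed class A/C inhibitor to microbroth MIC wells; titrate MBL inhibitor; record concentration regaining susceptibility for each PAO1-derived strain; divide efflux+ by efflux− value.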

[2] = tested on: Escherichia coli expressing NDM-1 (CLB30005, CLB30016); assay type: cell-based; settings: with imipenem 1 μg/ml; for Escherichia coli MITC95: NDM-1 strain, 95% inhibition of growth; for Escherichia coli expressing NDM-1 (CLB30016) MITC95: 95% inhibition of bacterial growth
How it was run: (§2)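 Imipenem 1 μg/ml + inhibitor; MBL-expressing clinical strains in 1.1×CAMHB, inoculum from saline suspension diluted 1:100; 35° C, 22–24 h; absorbance read-out.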

[3] = tested on: Klebsiella pneumoniae expressing VIM-1 (IHMA599644); assay type: cell-based; settings: for Klebsiella pneumoniae MITC95: VIM-1 strain IHMA599644, with imipenem 1 μg/ml, 95% inhibition of growth; for Klebsiella pneumoniae expressing VIM-1 (IHMA599644) MITC95: with imipenem 1 μg/ml, 95% inhibition of bacterial growth
How it was run: as §2

[4] = tested on: Serratia marcescens expressing IMP-1 (CL5741); assay type: cell-based; settings: for Serratia marcescens MITC95: IMP-1 strain CL5741, with imipenem 1 μg/ml, 95% inhibition of growth; for Serratia marcescens expressing IMP-1 (CL5741) MITC95: with imipenem 1 μg/ml, 95% inhibition of bacterial growth
How it was run: as §2

[5] = tested on: Pseudomonas aeruginosa MB9798 vs MB9799
How it was run: as §1

[6] = tested on: Pseudomonas aeruginosa efflux− (MB9799), IMP-1; assay type: cell-based; settings: C, D serine β-lactamase inhibitor closely related to relebactam; for P. aeruginosa expressing IMP-1, efflux − (MB9799) MITC95: concentration restoring susceptibility to imipenem at 2 μg/mL in the presence of a class A; for Concentration of metallo-β-lactamase inhibitor which restores susceptibility of efflux − (MB9799) strain to imipenem: imipenem at 2 μg/mL, in the presence of a class A
How it was run: as §1

VIM-1 = VIM-1 (Pseudomonas aeruginosa (strain ATCC 15692 / DSM 22644 / CIP 104116 / JCM 14847 / LMG 12228 / 1C / PRS 101 / PAO1), UniProt A0A0F7KYQ8); experiment: biochemical; settings: CCF2-FA substrate, 30 pM enzyme, 2 hours at 25° C.
How it was run: (§3)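 Fluorescence assay, CCF2-FA substrate (cephalosporin core linking 7-hydroxycoumarin to fluorescein); inhibitor + MBL + substrate, 2 h, 25° C. IC50 by 4-parameter fit, semi-log plot.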

NDM-1 = NDM-1 (Klebsiella pneumoniae, UniProt C7C422); experiment: biochemical; assay type: biochemical; settings: fluorescence assay, CCF2-FA substrate, 1 pM enzyme, 2 hours at 25° C.; read-out: NDM-1 IC50
NDM-1, sequence (C7C422 whole entry, looked up, species assumed): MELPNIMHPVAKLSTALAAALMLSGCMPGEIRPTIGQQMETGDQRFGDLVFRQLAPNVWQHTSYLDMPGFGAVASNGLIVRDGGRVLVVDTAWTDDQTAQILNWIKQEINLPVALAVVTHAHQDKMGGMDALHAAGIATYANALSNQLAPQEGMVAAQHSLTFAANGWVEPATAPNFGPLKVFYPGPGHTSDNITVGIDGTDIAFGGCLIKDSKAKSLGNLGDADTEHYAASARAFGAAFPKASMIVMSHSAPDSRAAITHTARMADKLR
How it was run: as §3

IMP-1 = IMP-1 (Serratia marcescens, UniProt P52699); experiment: biochemical; assay type: biochemical; settings: fluorescence assay, CCF2-FA substrate, 2 pM enzyme, 2 hours at 25° C.; read-out: IMP-1 IC50
IMP-1, sequence (P52699 whole entry, looked up, species assumed): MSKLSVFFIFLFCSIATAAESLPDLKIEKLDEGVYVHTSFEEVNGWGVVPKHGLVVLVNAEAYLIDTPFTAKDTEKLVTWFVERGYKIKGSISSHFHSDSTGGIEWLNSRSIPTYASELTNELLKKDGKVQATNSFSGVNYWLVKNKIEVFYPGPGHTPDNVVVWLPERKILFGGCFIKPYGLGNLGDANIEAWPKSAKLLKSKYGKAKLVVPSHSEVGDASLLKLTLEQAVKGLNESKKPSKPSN
How it was run: as §3

[7] = ratio MITC95 PA_9798/MITC95 PA_9799
[8] = fluorescence assay, read-out: VIM-1 IC50
[9] = fold difference between efflux+ (MB9798) and efflux− (MB9799) strains, imipenem at 2 μg/mL

Structure (SMILES): Nc1ccc2cccc(-c3ccc(S(=O)(=O)N[C@H]4CNC[C@H]4N)c(S(N)(=O)=O)c3-c3nn[nH]n3)c2n1 [Example 324, N1-((3S,4R)-4-aminopyrrolidin-3-yl)-4-(2-aminoquinolin-8-yl)-3-(1H-tetrazol-5-yl)benzene-1,2-disulfonamide]
- P. aeruginosa expressing IMP-1, efflux + (MB9798) MITC95 [1]: 0.7813 µM
- Escherichia coli MITC95 [2]: 1.563 µM
- Klebsiella pneumoniae MITC95 [3]: 1.563 µM
- Serratia marcescens MITC95 [4]: 0.7813 µM
- Efflux ratio [5, 7]: 1.00
- P. aeruginosa expressing IMP-1, efflux − (MB9799) MITC95 [6]: 0.7813 µM
- IC50 (VIM-1; [8]): 0.13 nM
- IC50 (NDM-1): 0.0387 nM
- IC50 (IMP-1): 0.213 nM

Structure (SMILES): Nc1nc2c(-c3ccc(S(=O)(=O)N4CC[C@H](N)C4)c(S(N)(=O)=O)c3-c3nnn[nH]3)cccc2s1 [Example 61, 3-(2-amino-1,3-benzothiazol-4-yl)-6-{[(3S)-3-aminopyrrolidin-1-yl]sulfonyl}-2-(1H-tetrazol-5-yl)benzenesulfonamide]
- P. aeruginosa expressing IMP-1, efflux + (MB9798) MITC95 [1]: 1.563 µM
- Escherichia coli expressing NDM-1 (CLB30016) MITC95 [2]: 3.125 µM
- Klebsiella pneumoniae expressing VIM-1 (IHMA599644) MITC95 [3]: 3.125 µM
- Serratia marcescens expressing IMP-1 (CL5741) MITC95 [4]: 3.125 µM
- Efflux ratio [5, 7]: 1.00
- P. aeruginosa expressing IMP-1, efflux − (MB9799) MITC95 [6]: 1.563 µM
- IC50 (VIM-1; VIM-1 IC50, fluorescence assay): 1.44 nM
- IC50 (NDM-1): 0.976 nM
- IC50 (IMP-1): 1.47 nM

Structure (SMILES): Nc1ccc(-c2ccc(S(=O)(=O)NC[C@H]3CCNC3)c(S(N)(=O)=O)c2-c2nn[nH]n2)cn1 [Example 484, (S)-4-(6-aminopyridin-3-yl)-N1-(pyrrolidin-3-ylmethyl)-3-(2H-tetrazol-5-yl)benzene-1,2-disulfonamide]
- Concentration of metallo-β-lactamase inhibitor which restores susceptibility of efflux + (MB9798) strain to imipenem [1]: 0.7813
- Escherichia coli MITC95 [2]: 0.1953 µM
- Klebsiella pneumoniae MITC95 [3]: 3.125 µM
- Serratia marcescens MITC95 [4]: 0.3906 µM
- Efflux ratio [5, 9]: 1.00
- Concentration of metallo-β-lactamase inhibitor which restores susceptibility of efflux − (MB9799) strain to imipenem [6]: 0.7813
- IC50 (VIM-1; [8]): 0.131 nM
- IC50 (NDM-1): 0.102 nM
- IC50 (IMP-1): 0.248 nM

Structure (SMILES): C[C@H](CN)NS(=O)(=O)c1ccc(-c2ccnc(N)c2)c(-c2nn[nH]n2)c1S(N)(=O)=O [Example 317, (R)—N1-(1-aminopropan-2-yl)-4-(2-aminopyridin-4-yl)-3-(2H -tetrazol-5-yl) benzene-1,2-disulfonamide]
- P. aeruginosa expressing IMP-1, efflux + (MB9798) MITC95 [1]: 1.563 µM
- Escherichia coli MITC95 [2]: 0.7813 µM
- Klebsiella pneumoniae MITC95 [3]: 3.125 µM
- Serratia marcescens MITC95 [4]: 1.563 µM
- Efflux ratio [5, 7]: 0.50
- P. aeruginosa expressing IMP-1, efflux − (MB9799) MITC95 [6]: 3.125 µM
- IC50 (VIM-1; [8]): 0.133 nM
- IC50 (NDM-1): 0.17 nM
- IC50 (IMP-1): 0.495 nM

Structure (SMILES): NC[C@@H](N)CNS(=O)(=O)c1ccc(-c2cccc(-c3n[nH]c(N)n3)c2)c(-c2nn[nH]n2)c1S(N)(=O)=O [Example 230, (R)-3′-(5-amino-1H-1,2,4-triazol-3-yl)-N4-(2,3-diaminopropyl)-2-(2H-tetrazol-5-yl)-[1,1′-biphenyl]-3,4-disulfonamide]
- P. aeruginosa expressing IMP-1, efflux + (MB9798) MITC95 [1]: 1.563 µM
- Escherichia coli expressing NDM-1 (CLB30016) MITC95 [2]: 1.563 µM
- Klebsiella pneumoniae expressing VIM-1 (IHMA599644) MITC95 [3]: 3.125 µM
- Serratia marcescens expressing IMP-1 (CL5741) MITC95 [4]: 1.563 µM
- Efflux ratio [5, 7]: 1.00
- P. aeruginosa expressing IMP-1, efflux − (MB9799) MITC95 [6]: 1.563 µM
- IC50 (VIM-1; [8]): 0.199 nM
- IC50 (NDM-1): 0.0593 nM
- IC50 (IMP-1): 0.357 nM

Structure (SMILES): Nc1ccc(-c2ccc(S(=O)(=O)NCC3(O)CCNCC3)c(S(N)(=O)=O)c2-c2nn[nH]n2)cn1 [Example 492, 4-(6-aminopyridin-3-yl)-N1-((4-hydroxypiperidin-4-yl)methyl)-3-(2H-tetrazol-5-yl)benzene-1,2 disulfonamide]
- Concentration of metallo-β-lactamase inhibitor which restores susceptibility of efflux + (MB9798) strain to imipenem [1]: 1.563
- Escherichia coli MITC95 [2]: 0.3906 µM
- Klebsiella pneumoniae MITC95 [3]: 3.125 µM
- Serratia marcescens MITC95 [4]: 1.563 µM
- Efflux ratio [5, 9]: 1.00
- Concentration of metallo-β-lactamase inhibitor which restores susceptibility of efflux − (MB9799) strain to imipenem [6]: 1.563
- IC50 (VIM-1; VIM-1 IC50, fluorescence assay): 0.24 nM
- IC50 (NDM-1): 0.305 nM
- IC50 (IMP-1): 0.52 nM

Structure (SMILES): NCCNS(=O)(=O)c1ccc(-c2cccc3[nH]c(N)nc23)c(-c2nn[nH]n2)c1S(N)(=O)=O [Example 12, 4-(2-amino-1H-benzo[d]imidazol-4-yl)-N^1-(2-aminoethyl)-3-(2H-tetrazol-5-yl)benzene-1,2-disulfonamide]
- P. aeruginosa expressing IMP-1, efflux + (MB9798) MITC95 [1]: 0.375 µM
- Escherichia coli expressing NDM-1 (CLB30016) MITC95 [2]: 0.25 µM
- Klebsiella pneumoniae expressing VIM-1 (IHMA599644) MITC95 [3]: 0.5703 µM
- Serratia marcescens expressing IMP-1 (CL5741) MITC95 [4]: 0.6302 µM
- Efflux ratio [5, 7]: 0.75
- P. aeruginosa expressing IMP-1, efflux − (MB9799) MITC95 [6]: 0.5 µM
- IC50 (VIM-1; VIM-1 IC50, fluorescence assay): 0.102 nM
- IC50 (NDM-1): 0.0429 nM
- IC50 (IMP-1): 0.316 nM

Structure (SMILES): Nc1nc2c(-c3ccc(S(=O)(=O)N[C@@H]4CNC[C@@H]4N)c(S(N)(=O)=O)c3-c3nn[nH]n3)cccc2[nH]1 [Example 240]
- P. aeruginosa expressing IMP-1, efflux + (MB9798) MITC95 [1]: 0.7813 µM
- Escherichia coli expressing NDM-1 (CLB30016) MITC95 [2]: 0.1953 µM
- Klebsiella pneumoniae expressing VIM-1 (IHMA599644) MITC95 [3]: 1.563 µM
- Serratia marcescens expressing IMP-1 (CL5741) MITC95 [4]: 0.7813 µM
- Efflux ratio [5, 7]: 1.00
- P. aeruginosa expressing IMP-1, efflux − (MB9799) MITC95 [6]: 0.7813 µM
- IC50 (VIM-1; VIM-1 IC50, fluorescence assay): 0.169 nM
- IC50 (NDM-1): 0.0569 nM
- IC50 (IMP-1): 0.745 nM

Structure (SMILES): NCCNCc1sc(N)nc1-c1cccc(-c2ccc(S(=O)(=O)N[C@@H]3CCNC3)c(S(N)(=O)=O)c2-c2nnn[nH]2)c1 [Example 433]
- Concentration of metallo-β-lactamase inhibitor which restores susceptibility of efflux + (MB9798) strain to imipenem [1]: 1.563
- Escherichia coli MITC95 [2]: 0.7813 µM
- Klebsiella pneumoniae MITC95 [3]: 1.563 µM
- Serratia marcescens MITC95 [4]: 1.563 µM
- Efflux ratio [5, 9]: 2.00
- Concentration of metallo-β-lactamase inhibitor which restores susceptibility of efflux − (MB9799) strain to imipenem [6]: 0.7813
- IC50 (VIM-1; [8]): 0.404 nM
- IC50 (NDM-1): 0.51 nM
- IC50 (IMP-1): 1.33 nM

Structure (SMILES): C[C@H](CN)NS(=O)(=O)c1ccc(-c2ccc(N)nc2)c(-c2nn[nH]n2)c1S(N)(=O)=O [Example 393, (R)—N^1-(1-aminopropan-2-yl)-4-(6-aminopyridin-3-yl)-3-(2H-tetrazol-5-yl)benzene-1,2-disulfonamide]
- Concentration of metallo-β-lactamase inhibitor which restores susceptibility of efflux + (MB9798) strain to imipenem [1]: 0.7813
- Escherichia coli MITC95 [2]: 0.651 µM
- Klebsiella pneumoniae MITC95 [3]: 2.083 µM
- Serratia marcescens MITC95 [4]: 1.042 µM
- Efflux ratio [5, 9]: 0.75
- Concentration of metallo-β-lactamase inhibitor which restores susceptibility of efflux − (MB9799) strain to imipenem [6]: 1.042
- IC50 (VIM-1; [8]): 0.0454 nM
- IC50 (NDM-1): 0.0219 nM
- IC50 (IMP-1): 0.0629 nM

— patent US10221163B2 (priority 2015, dated 2019)
